This is an account of results in ChEMBL document CHEMBL1130884, “Synthesis of novel antifungal agents (2)” (1998).

Values after ≈ are worked out from the molar mass of the structure shown. A value given as a limit tells only on which side of the number the result lay.

One assay relates to Aspergillus fumigatus. Put plainly: Compound was tested in vitro for antifungal activity against Aspergillus fumigatus (CF1003). In kind it is functional.
Details: not given
With `CO[C@@H]1[C@@H](Cn2cncn2)[C@H](COc2ccc(OC(C)(C)C)cc2)CC[C@@]1(C)CCSc1nccn1C`, the 80% effect level (IC80) was put at 36 µg/mL (≈ 68.2 µM).
Still for that read-out and setting: the figure for `COC1[C@@H](Cn2cncn2)[C@H](COc2ccc(OC(C)(C)C)cc2)CC[C@@]1(C)CCS(C)(=O)=O` (stereo partly specified) is greater than 200 µg/mL.
Still for that read-out and setting: then `CO/N=C1/[C@@H](Cn2cncn2)[C@H](COc2ccc(OC(C)(C)C)cc2)CC[C@@]1(C)CCSc1ncccn1`, with 2.6 µg/mL (≈ 4.83 µM); and `COC1[C@@H](Cn2cncn2)[C@H](COc2ccc(OC(C)(C)C)cc2)CC[C@@]1(C)CCn1ccnc1` (stereo partly specified), with 84 µg/mL (≈ 174 µM).
Still for that read-out and setting: the figure for `COCC[C@]1(C)CC[C@@H](COc2ccc(OC(C)(C)C)cc2)[C@H](Cn2cncn2)/C1=N/OC` is 0.6 µg/mL (≈ 1.31 µM); for `COC1[C@@H](Cn2cncn2)[C@H](COc2ccc(OC(C)(C)C)cc2)CC[C@@]1(C)CCN1CCOCC1` (stereo partly specified) it is 158 µg/mL (≈ 316 µM); for `CSCC[C@]1(C)CC[C@@H](COc2ccc(OC(C)(C)C)cc2)[C@H](Cn2cncn2)/C1=N/O` it is 0.45 µg/mL (≈ 0.977 µM).
Compound `CO/N=C1/[C@@H](Cn2cncn2)[C@H](COc2ccc(OC(C)(C)C)cc2)CC[C@@]1(C)CCn1ccnc1` had an 80% effect concentration (IC80) of 4.6 µg/mL (≈ 9.3 µM).
On the same count and under the same terms, then `OC(Cn1cncn1)(Cn1cncn1)c1ccc(F)cc1F` [FLUCONAZOLE], with greater than 200 µg/mL.

A further assay has as its system Candida albicans. Put plainly: Compound was tested for in vitro antifungal activity against Candida albicans (CY3003). In kind it is functional.
Details: not given
In turn, `CO[C@@H]1[C@@H](Cn2cncn2)[C@H](COc2ccc(OC(C)(C)C)cc2)CC[C@@]1(C)CCSc1nccn1C` returned an 80% effect concentration (IC80) of 0.5 µg/mL (≈ 0.947 µM).
On to `COC1[C@@H](Cn2cncn2)[C@H](COc2ccc(OC(C)(C)C)cc2)CC[C@@]1(C)CCS(C)(=O)=O` (stereo partly specified), for which the IC80 amounted to 0.7 µg/mL (≈ 1.42 µM).
Still for that read-out and setting: then `CO/N=C1/[C@@H](Cn2cncn2)[C@H](COc2ccc(OC(C)(C)C)cc2)CC[C@@]1(C)CCSc1ncccn1`, with 0.85 µg/mL (≈ 1.58 µM).
Consider `COC1[C@@H](Cn2cncn2)[C@H](COc2ccc(OC(C)(C)C)cc2)CC[C@@]1(C)CCn1ccnc1` (stereo partly specified), for which the 80% effect level (IC80) was put at 0.08 µg/mL (≈ 0.166 µM).
On the same count and under the same terms, then `COCC[C@]1(C)CC[C@@H](COc2ccc(OC(C)(C)C)cc2)[C@H](Cn2cncn2)/C1=N/OC`, with 0.05 µg/mL (≈ 0.109 µM).
Same read-out and setting: the figure for `COC1[C@@H](Cn2cncn2)[C@H](COc2ccc(OC(C)(C)C)cc2)CC[C@@]1(C)CCN1CCOCC1` (stereo partly specified) is 0.03 µg/mL (≈ 0.0599 µM).
The same measure, in the same setting: then `CSCC[C@]1(C)CC[C@@H](COc2ccc(OC(C)(C)C)cc2)[C@H](Cn2cncn2)/C1=N/O`, with 0.18 µg/mL (≈ 0.391 µM); and `CO/N=C1/[C@@H](Cn2cncn2)[C@H](COc2ccc(OC(C)(C)C)cc2)CC[C@@]1(C)CCn1ccnc1`, with 0.22 µg/mL (≈ 0.445 µM); and `OC(Cn1cncn1)(Cn1cncn1)c1ccc(F)cc1F` [FLUCONAZOLE], with 1.4 µg/mL (≈ 4.57 µM).

A further assay deals with Cryptococcus neoformans. Put plainly: Compound was tested for in vitro antifungal activity against Cryptococcus neoformans (CY1057).
Details: not given
On to `CO[C@@H]1[C@@H](Cn2cncn2)[C@H](COc2ccc(OC(C)(C)C)cc2)CC[C@@]1(C)CCSc1nccn1C`, for which the concentration for an effect of 80% (IC80) was determined as 0.9 µg/mL (≈ 1.71 µM).
On the same count and under the same terms, then `COC1[C@@H](Cn2cncn2)[C@H](COc2ccc(OC(C)(C)C)cc2)CC[C@@]1(C)CCS(C)(=O)=O` (stereo partly specified), with 0.38 µg/mL (≈ 0.77 µM); and `CO/N=C1/[C@@H](Cn2cncn2)[C@H](COc2ccc(OC(C)(C)C)cc2)CC[C@@]1(C)CCSc1ncccn1`, with 1.1 µg/mL (≈ 2.04 µM); and `COC1[C@@H](Cn2cncn2)[C@H](COc2ccc(OC(C)(C)C)cc2)CC[C@@]1(C)CCn1ccnc1` (stereo partly specified), with 0.24 µg/mL (≈ 0.498 µM).
On to `COCC[C@]1(C)CC[C@@H](COc2ccc(OC(C)(C)C)cc2)[C@H](Cn2cncn2)/C1=N/OC`, for which the IC80 turned out to be 1 µg/mL (≈ 2.18 µM).
Same read-out and setting: the figure for `COC1[C@@H](Cn2cncn2)[C@H](COc2ccc(OC(C)(C)C)cc2)CC[C@@]1(C)CCN1CCOCC1` (stereo partly specified) is 0.02 µg/mL (≈ 0.0399 µM); for `CSCC[C@]1(C)CC[C@@H](COc2ccc(OC(C)(C)C)cc2)[C@H](Cn2cncn2)/C1=N/O` it is 21 µg/mL (≈ 45.6 µM); for `CO/N=C1/[C@@H](Cn2cncn2)[C@H](COc2ccc(OC(C)(C)C)cc2)CC[C@@]1(C)CCn1ccnc1` it is 13 µg/mL (≈ 26.3 µM).
Still for that read-out and setting: the figure for `OC(Cn1cncn1)(Cn1cncn1)c1ccc(F)cc1F` [FLUCONAZOLE] is 3.6 µg/mL (≈ 11.8 µM).

Another assay deals with Mus musculus. The assay is described as follows: Compound was tested for antifungal activity by measuring systemic candidosis in mice on 7th day upon single peroral administration. The assay is classed as functional. As to conditions: po.
In turn, `CO[C@@H]1[C@@H](Cn2cncn2)[C@H](COc2ccc(OC(C)(C)C)cc2)CC[C@@]1(C)CCSc1nccn1C` gave an ED50 of 50 mg/kg.
Still for that read-out and setting: the figure for `COC1[C@@H](Cn2cncn2)[C@H](COc2ccc(OC(C)(C)C)cc2)CC[C@@]1(C)CCS(C)(=O)=O` (stereo partly specified) is 50 mg/kg; for `CO/N=C1/[C@@H](Cn2cncn2)[C@H](COc2ccc(OC(C)(C)C)cc2)CC[C@@]1(C)CCSc1ncccn1` it is greater than 100 mg/kg; for `COC1[C@@H](Cn2cncn2)[C@H](COc2ccc(OC(C)(C)C)cc2)CC[C@@]1(C)CCn1ccnc1` (stereo partly specified) it is 50 mg/kg.
Same read-out and setting: then `COCC[C@]1(C)CC[C@@H](COc2ccc(OC(C)(C)C)cc2)[C@H](Cn2cncn2)/C1=N/OC`, with greater than 100 mg/kg.
The same measure, in the same setting: the figure for `COC1[C@@H](Cn2cncn2)[C@H](COc2ccc(OC(C)(C)C)cc2)CC[C@@]1(C)CCN1CCOCC1` (stereo partly specified) is 50 mg/kg; for `CSCC[C@]1(C)CC[C@@H](COc2ccc(OC(C)(C)C)cc2)[C@H](Cn2cncn2)/C1=N/O` it is greater than 100 mg/kg; for `CO/N=C1/[C@@H](Cn2cncn2)[C@H](COc2ccc(OC(C)(C)C)cc2)CC[C@@]1(C)CCn1ccnc1` it is greater than 100 mg/kg.
`OC(Cn1cncn1)(Cn1cncn1)c1ccc(F)cc1F` [FLUCONAZOLE] showed an ED50 of 5.4 mg/kg.

A word on the IC80: it is the concentration at which the effect reaches the 80% level. The term ED50 denotes the midpoint of the dose-response relation. Lower therefore signals an effect at a small dose.
